Experimental data: patent publication US12642270B2, “Substituted thiophene carboxamides, thiophene carboxylic acids and derivatives thereof” (Bayer Aktiengesellschaft, priority 2019, dated 2026)

assay: Log P by HPLC on reversed phase columns (EEC directive 79/831 Annex V.A8); format: physicochemical; settings: method [a]
Method: In the above tables, measurement of Log P values was performed according to EEC directive 79/831 Annex V.A8 by HPLC (High Performance Liquid Chromatography) on reversed phase columns with the following methods: • ^[a] Log P value is determined by measurement of LC-UV, in an acidic range, with 0.1% formic acid in water and acetonitrile as eluent (linear gradient from 10% acetonitrile to 95% acetonitrile). • ^[b] Log P value is determined by measurement of LC-UV, in a neutral range, with 0.001 molar ammonium acetate solution in water and acetonitrile as eluent (linear gradient from 10% acetonitrile to 95% acetonitrile). • ^[c] Log P value is determined by measurement of LC-UV, in an acidic range, with 0.1% phosphoric acid and acetonitrile as eluent (linear gradient from 10% acetonitrile to 95% acetonitrile). If more than one Log P value is available within the same method, all the values are given and separated by “+”. Calibration was done with straight-chain alkan2-ones (with 3 to 16 carbon atoms) with known Log P values (measurement of Log P values using retention times with linear interpolation between successive alkanones). Lambda-max-values were determined using UV-spectra from 200 nm to 400 nm and the peak values of the chromatographic signals.

| LogP | SMILES |
| --- | --- |
| 4.89^[a] | CC(C)(C)OC(=O)C(NC(=O)c1sc(Br)c(Br)c1F)C1CC1 (racemic) [1.0921] |
| 4.59^[a] | O=C(NC(C(=O)OC1CCC1)C1CC1)c1sc(Br)c(Br)c1F (racemic) [1.0922] |
| 4.40^[a] | CC(C)OC(=O)C(NC(=O)c1sc(Br)c(Br)c1F)C1CC1 (racemic) [1.0923] |

same assay, conditions: method [a]; compounds of formula (I), Table 1.1

| SMILES | LogP |
| --- | --- |
| CCOC(=O)C(NC(=O)c1cc(C)c(Cl)s1)C(C)C (racemic) [1.0002] | 3.48^[a] |
| CCSC(=O)C(NC(=O)c1sc(Br)c(Br)c1F)C(C)C (racemic) [1.0014] | 4.87^[a] |
| CCSC(=O)C(CC(C)C)NC(=O)c1sc(Cl)c(Br)c1C (racemic) [1.0020] | 5.03^[a] |
| CCOC(=O)C(NC(=O)c1sc(C#N)c(Br)c1C)C(C)C (racemic) [1.0027] | 3.52^[a] |
| CCOC(=O)C(Cc1ccccc1)NC(=O)c1sc(C#N)c(Br)c1C (racemic) [1.0028] | 3.74^[a] |
| CCOC(=O)C(Cc1ccccc1)NC(=O)c1cc(Br)c(Cl)s1 (racemic) [1.0029] | 4.06^[a] |
| CCOC(=O)C(Cc1ccccc1)NC(=O)c1cc(F)c(Br)s1 (racemic) [1.0030] | 3.69^[a] |
| CCOC(=O)C(Cc1ccccc1)NC(=O)c1cc(C)c(Cl)s1 (racemic) [1.0031] | 3.73^[a] |
| O=C(CNC(=O)c1sc(Br)c(Br)c1F)SCc1ccccc1 [1.0015] | 4.15^[a] |
| CCOC(=O)C1(NC(=O)c2sc(Cl)c(Br)c2C)CCOCC1 [1.0018] | 3.15^[a] |
| Cc1c(C(=O)NCC(=O)SCc2ccccc2)sc(Cl)c1Br [1.0022] | 4.37^[a] |
| CCOC(=O)CNC(=O)c1sc(C#N)c(Br)c1C [1.0024] | 2.46^[a] |
| CCOC(=O)CCNC(=O)c1sc(C#N)c(Br)c1C [1.0025] | 2.52^[a] |
| CCOC(=O)C1(NC(=O)c2sc(C#N)c(Br)c2C)CC1 [1.0026] | 2.58^[a] |
| COC(=O)CC1(NC(=O)c2sc(Cl)c(Br)c2C)CC1 [1.0032] | 3.04^[a] |
| CCOC(=O)C1(CNC(=O)c2sc(Cl)c(Br)c2C)CC1 [1.0033] | 3.79^[a] |
| CCOC(=O)C(CC(N)=O)NC(=O)c1sc(Cl)c(Br)c1C (stereo not shown) [1.0036] | 2.25^[a] |
| CCOC(=O)C(CC(F)(F)F)NC(=O)c1sc(Cl)c(Br)c1C (stereo not shown) [1.0038] | 3.99^[a] |
| CCOC(=O)C1(CNC(=O)c2sc(Br)c(Cl)c2C)CC1 [1.0040] | 3.75^[a] |
| CCOC(=O)C(CC(N)=O)NC(=O)c1sc(Br)c(Cl)c1C (stereo not shown) [1.0043] | 2.22^[a] |
| CCOC(=O)C(CC(F)(F)F)NC(=O)c1sc(Br)c(Cl)c1C (stereo not shown) [1.0045] | 3.94^[a] |
| CCOC(=O)C1(NC(=O)c2sc(Br)c(Br)c2F)COC1 [1.0046] | 2.77^[a] |
| COC(=O)C1(NC(=O)c2sc(Br)c(Br)c2F)CSC1 [1.0047] | 3.19^[a] |

| SMILES | LogP |
| --- | --- |
| CCOC(=O)C(CC(N)=O)NC(=O)c1sc(Br)c(Br)c1F (stereo not shown) [1.0048] | 2.17^[a] |
| CCOC(=O)C(Cc1ccccc1)NC(=O)c1sc(Br)c(Br)c1F (stereo not shown) [1.0051] | 4.55^[a] |
| CCOC(=O)C(NC(=O)c1cc(Br)c(C#N)s1)C(C)C (stereo not shown) [1.0054] | 3.27^[a] |
| CCOC(=O)C(Cc1ccccc1)NC(=O)c1cc(Br)c(C#N)s1 (stereo not shown) [1.0055] | 3.50^[a] |
| CCOC(=O)CCNC(=O)c1sc(Cl)c(Br)c1C [1.0064] | 3.15^[a] |
| CCOC(=O)C1(NC(=O)c2sc(Cl)c(Br)c2C)CC1 [1.0065] | 3.17^[a] |
| CCOC(=O)C1(NC(=O)c2sc(Cl)c(Br)c2C)CCC1 [1.0066] | 3.71^[a] |
| COC(=O)C(CC(F)F)NC(=O)c1sc(Cl)c(Br)c1C (stereo not shown) [1.0068] | 3.33^[a] |
| CCOC(=O)C(CC(C)C)NC(=O)c1sc(Cl)c(Br)c1C (stereo not shown) [1.0069] | 4.58^[a] |
| CCOC(=O)C(CCSC)NC(=O)c1sc(Cl)c(Br)c1C (stereo not shown) [1.0070] | 3.99^[a] |
| CCOC(=O)C(Cc1ccccc1)NC(=O)c1sc(Cl)c(Br)c1C (stereo not shown) [1.0071] | 4.51^[a] |
| CCOC(=O)CCNC(=O)c1sc(Br)c(Cl)c1C [1.0073] | 3.11^[a] |
| CCOC(=O)C1(NC(=O)c2sc(Br)c(Cl)c2C)CCC1 [1.0075] | 3.67^[a] |
| CCOC(=O)C(CC(C)C)NC(=O)c1sc(Br)c(Cl)c1C (stereo not shown) [1.0078] | 4.53^[a] |
| CCOC(=O)C(Cc1ccccc1)NC(=O)c1sc(Br)c(Cl)c1C (stereo not shown) [1.0080] | 4.46^[a] |
| CCOC(=O)CCNC(=O)c1sc(Br)c(Br)c1I [1.0081] | 3.48^[a] |
| CCOC(=O)C1(NC(=O)c2sc(Br)c(Br)c2I)CCC1 [1.0082] | 4.08^[a] |
| COC(=O)C(CC(F)F)NC(=O)c1sc(Br)c(Br)c1I (stereo not shown) [1.0083] | 3.60^[a] |
| CCOC(=O)CCNC(=O)c1sc(Cl)c(Cl)c1Br [1.0084] | 3.50^[a] |
| CCOC(=O)C1(NC(=O)c2sc(Cl)c(Cl)c2Br)CCC1 [1.0085] | 4.23^[a] |
| CCOC(=O)CNC(=O)c1sc(Br)c(I)c1C [1.0087] | 3.09^[a] |
| CCOC(=O)CCNC(=O)c1sc(Br)c(I)c1C [1.0088] | 3.23^[a] |
| CCOC(=O)C1(NC(=O)c2sc(Br)c(I)c2C)CC1 [1.0089] | 3.25^[a] |

Second part, the compound after the results:

| LogP | SMILES |
| --- | --- |
| 3.37^[a] | C=CC1CC1(NC(=O)c1sc(Br)c(Br)c1F)C(=O)OC (mixture of isomers) [1.0008] |
| 3.46^[a] | CCOC(=O)C(NC(=O)c1cc(F)c(Br)s1)C(C)C (racemic) [1.0003] |
| 2.68^[a] | COC(=O)C(CC(F)F)NC(=O)c1cc(F)c(Br)s1 (racemic) [1.0004] |
| 2.58^[a] | CSCCC(NC(=O)c1cc(Br)c(Cl)s1)C(=O)O (racemic) [1.0005] |
| 2.76^[a] | COC(=O)C1(NC(=O)c2sc(Br)c(Br)c2F)CCOC1 (racemic) [1.0009] |
| 2.51^[a] | CCOC(=O)C(CO)NC(=O)c1sc(Br)c(Br)c1F (racemic) [1.0012] |
| 5.05^[a] | CCSC(=O)C(CC(C)C)NC(=O)c1sc(Br)c(Br)c1F (racemic) [1.0013] |
| 2.54^[a] | CCOC(=O)C(CO)NC(=O)c1sc(Cl)c(Br)c1C (racemic) [1.0019] |
| 4.74^[a] | CCSC(=O)C(NC(=O)c1sc(Cl)c(Br)c1C)C(C)C (racemic) [1.0021] |
| 2.69^[a] | CCOC(=O)CNC(=O)c1sc(C)c(Br)c1F [1.0001] |
| 3.74^[a] | COC(=O)C1(NC(=O)c2sc(Br)c(Br)c2F)CCC(F)(F)CC1 [1.0010] |
| 3.13^[a] | CCOC(=O)C1(NC(=O)c2sc(Br)c(Br)c2F)CCOCC1 [1.0011] |
| 3.89^[a] | O=C(CNC(=O)c1sc(Br)c(Br)c1F)Sc1ccccc1 [1.0016] |
| 2.88^[a] | CCOC(=O)C1(NC(=O)c2sc(Cl)c(Br)c2C)COC1 [1.0034] |
| 3.29^[a] | COC(=O)C1(NC(=O)c2sc(Cl)c(Br)c2C)CSC1 [1.0035] |
| 2.84^[a] | CCOC(=O)C1(NC(=O)c2sc(Br)c(Cl)c2C)COC1 [1.0041] |
| 3.25^[a] | COC(=O)C1(NC(=O)c2sc(Br)c(Cl)c2C)CSC1 [1.0042] |
| 3.88^[a] | CCOC(=O)C(CC(F)(F)F)NC(=O)c1sc(Br)c(Br)c1F (stereo not shown) [1.0050] |
| 2.16^[a] | CCOC(=O)CNC(=O)c1cc(Br)c(C#N)s1 [1.0052] |
| 2.45^[a] | CCOC(=O)C1(NC(=O)c2cc(Br)c(C#N)s2)CC1 [1.0053] |
| 4.61^[a] | CCOC(=O)CNC(=S)c1sc(Cl)c(Cl)c1Br [1.0059] |
| 4.67^[a] | CCOC(=O)C(CC(C)C)NC(=O)c1sc(Br)c(Br)c1F (stereo not shown) [1.0062] |
| 2.98^[a] | CCOC(=O)CNC(=O)c1sc(Cl)c(Br)c1C [1.0063] |
| 4.30^[a] | CCOC(=O)C(NC(=O)c1sc(Cl)c(Br)c1C)C(C)C (stereo not shown) [1.0067] |
| 2.94^[a] | CCOC(=O)CNC(=O)c1sc(Br)c(Cl)c1C [1.0072] |
| 3.13^[a] | CCOC(=O)C1(NC(=O)c2sc(Br)c(Cl)c2C)CC1 [1.0074] |
| 4.25^[a] | CCOC(=O)C(NC(=O)c1sc(Br)c(Cl)c1C)C(C)C (stereo not shown) [1.0076] |
| 3.29^[a] | COC(=O)C(CC(F)F)NC(=O)c1sc(Br)c(Cl)c1C (stereo not shown) [1.0077] |
| 3.94^[a] | CCOC(=O)C(CCSC)NC(=O)c1sc(Br)c(Cl)c1C (stereo not shown) [1.0079] |
| 3.60^[a] | COC(=O)C(CC(F)F)NC(=O)c1sc(Cl)c(Cl)c1Br (stereo not shown) [1.0086] |

same assay, conditions: method marker [a] given with each value; Table 1.1, compounds of formula (I)

| LogP | SMILES |
| --- | --- |
| 4.95^[a] | COC(=O)C(Cc1ccc(Cl)cc1)NC(=O)c1sc(Br)c(Br)c1Cl (racemic) [1.0940] |
| 5.12^[a] | COC(=O)C(C)(Cc1ccccc1)NC(=O)c1sc(Br)c(Br)c1Cl (racemic) [1.0941] |
| 4.25^[a] | COC(=O)C(NC(=O)c1sc(Br)c(Br)c1Cl)c1cccs1 (racemic) [1.0942] |
| 4.50^[a] | CCOC(=O)C(NC(=O)c1sc(Br)c(Br)c1Cl)C(F)(F)F (racemic) [1.0943] |
| 4.52^[a] | CCOC(=O)C(NC(=O)c1sc(Cl)c(Cl)c1Br)C(F)(F)F (racemic) [1.0946] |
| 4.26^[a] | COC(=O)C(NC(=O)c1sc(Cl)c(Cl)c1Br)c1cccs1 (racemic) [1.0947] |
| 5.15^[a] | COC(=O)C(C)(Cc1ccccc1)NC(=O)c1sc(Cl)c(Cl)c1Br (racemic) [1.0948] |
| 4.08^[a] | CCOC(=O)C(NC(=O)c1sc(Br)c(Br)c1F)C(F)(F)F (racemic) [1.0952] |
| 3.84^[a] | COC(=O)C(NC(=O)c1sc(Br)c(Br)c1F)c1cccs1 (racemic) [1.0953] |
